# Laboratory results taken from paper PMC6231237 (Journal of the American Chemical Society, 2018).
# *1 amine or outer side, *2 acyl side, *3 side chain or, on linkers, in order; H or OH if unused. Where a SMILES comes first, the peptide text is derived from it. Bridges are numbered along the chain shown (N, C = ends). [ ]: non-standard residue; d: D form. Trimesoyl = O=C(c1cc(C(=O)[*:2])cc(C(=O)[*:3])c1)[*:1]; 2Nal = N[C@@H](Cc1ccc2ccccc2c1)C(=O)O; Dap = NC[C@H](N)C(=O)O; βAla = NCCC(=O)O
# How the values were obtained:
# HeLa cells = experiment: Flow cytometry analysis of cellular uptake of FITC-labeled peptides; assay type: cell-based; settings: relative to CPP1
# [1] = system: basal NF-κB activity in HEK293(Luc) cells; experiment: NF-κB luciferase assay, basal; assay type: cell-based; settings: absence of TNFα stimulation
# [2] = system: A2780 ovarian cancer cells; experiment: Live-cell confocal microscopy of cell entry; assay type: cell-based; settings: 5 μM FITC-labeled peptide, 2 h
# A375 melanoma cells = experiment: Cell viability assay, A375; assay type: cell-based
# [3] = target: panel of control proteins; experiment: Fluorescence anisotropy; settings: fluorescently labeled peptide, FA assay
# HT29 colon cancer cells = experiment: Immunoblot analysis of IKKβ and IκBα levels; assay type: cell-based
# NEMO-IKKβ interaction = NEMO-IKKβ interaction (Homo sapiens, UniProt Q9Y6K9); experiment: HTRF assay of inhibition of the NEMO-IKKβ interaction; assay type: binding; settings: insertion of Ala N-terminal to the internal Dap, vs peptide 6
# Chain of NEMO-IKKβ interaction (Q9Y6K9 1-196): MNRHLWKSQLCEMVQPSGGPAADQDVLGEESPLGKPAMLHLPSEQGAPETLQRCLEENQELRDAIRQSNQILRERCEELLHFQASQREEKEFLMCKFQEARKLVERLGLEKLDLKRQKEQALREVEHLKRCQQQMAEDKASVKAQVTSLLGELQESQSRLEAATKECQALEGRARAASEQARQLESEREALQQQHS
# [4] = system: TNFα-induced NF-κB activation in HEK293(Luc) cells; experiment: NF-κB luciferase assay, TNFα-induced; assay type: cell-based
# [5] = system: ovarian surface epithelial cells (OSE); experiment: Methylene blue cell viability assay, OSE; assay type: cell-based; settings: 72 h
# [6] = 0–25 μM, HT29 cells, TNFα, Western blot
Molecule,cell permeability (HeLa cells) [%],effect on basal NF-κB activity [1],increase in the basal NF-κB activity [1],cell entry (fluorescence) [2],effect on viability (A375 melanoma cells),Kd [3] [µM],TNFα-induced phosphorylation of IKKβ (HT29 colon cancer cells; [6]),total intracellular IKKβ level (HT29 colon cancer cells; [6]),phospho-IKKβ or IκBα level (HT29 colon cancer cells; HT29 cells not stimulated with TNFα),"intracellular level of IκBα (HT29 colon cancer cells; HT29 cells, TNFα, Western blot)",increase of binding affinity (NEMO-IKKβ interaction) [fold],IC50 [4] [µM],effect on viability [5]
"CC[C@H](C)[C@@H]1NC(=O)[C@H](Cc2c[nH]c3ccccc23)NC(=O)CNC(=O)c2cc3cc(c2)C(=O)NC[C@@H](C(=O)NCCC(=O)NCCC(=O)N[C@@H](CCCCN)C(N)=O)NC(=O)[C@H](CCCNC(=N)N)NC(=O)[C@@H](CCCNC(=N)N)NC(=O)[C@H](CCCNC(=N)N)NC(=O)[C@H](Cc2ccc4ccccc4c2)NC(=O)[C@H](Cc2ccccc2)NC(=O)[C@H](CNC3=O)NC(=O)[C@H](C)NC(=O)[C@H](Cc2ccc(O)cc2)NC1=O [peptide 7, Tm(GWIYA)Δ(FΦRrRΔ)-BBK] (GWIYA[Dap]F[2Nal]R[dR]R[Dap][βAla][βAla]K-NH2; linker N-6-12 via Trimesoyl; C-terminus assumed)",163,did not inhibit,~ 1.5 fold,intense green fluorescence inside all cells,reduced the viability,> 10,dose-dependently inhibited,unchanged,no effect,increased,5.9,10,no significant effect
"RQIKIWFQNRRMKWKKGGTALDWSWLQTE [peptide 1, reference compound]",,,,,,,,,,,,~41,
